Test results taken from ChEMBL document CHEMBL1681656, “Design and synthesis of AApeptides: a new class of peptide mimics” (Bioorg Med Chem Lett, 2011).

Tests used:
[1] = Inhibition of GST-MDM2/His6-p53 interaction expressed in Escherichia coli after 1 hr by ELISA
[2] = Chemical stability of the compound assessed as enzymatic hydrolysis in ammonium bicarbonate buffer at pH 7.8 after 24 hrs in presence of chymotrypsin; assay type: physicochemical; conditions: isolated protein, pH 7.8, 24 h
[3] = Chemical stability of the compound assessed as enzymatic hydrolysis in ammonium bicarbonate buffer at pH 7.8 after 24 hrs in presence of trypsin; assay type: physicochemical; conditions: isolated protein, pH 7.8, 24 h
[4] = Chemical stability of the compound assessed as enzymatic hydrolysis in ammonium bicarbonate buffer at pH 7.8 after 24 hrs in presence of pronase; assay type: physicochemical; conditions: pH 7.8, 24 h

Row | IC50 [1] | Stability [2] | Stability [3] | Stability [4] | Structure (SMILES)
1 | 120 µM | Stable | Stable | Stable | CCC(=O)N(CCNC(=O)[C@H](CC(C)C)N(CCNC(=O)[C@H](Cc1c[nH]c2ccccc12)N(CCNC(=O)[C@H](Cc1ccccc1)N(CCNC(=O)[C@H](C)N(CCN)C(=O)CC)C(=O)CC)C(=O)CCO)C(=O)CCc1ccccc1)[C@@H](C)C(N)=O
2 | 38 µM | – | – | – | CCC(=O)N(CCNC(=O)[C@H](CC(C)C)N(CCNC(=O)[C@H](Cc1c[nH]c2ccccc12)N(CCNC(=O)[C@H](Cc1ccccc1)N(CCNC(=O)[C@H](C)N(CCN)C(=O)CC)C(=O)CC)C(=O)CCO)C(=O)CC)[C@@H](C)C(N)=O

Continued, molecule first:

Row | Structure (SMILES) | IC50 [1] | Stability [2] | Stability [3] | Stability [4]
3 | CCC(=O)N(CCNC(=O)[C@H](Cc1c[nH]c2ccccc12)N(CCNC(=O)[C@H](Cc1ccccc1)N(CCNC(=O)[C@H](C)N(CCN)C(=O)CC(C)C)C(=O)CC)C(=O)CCO)[C@H](C(N)=O)C(C)C | > 1000 µM | – | – | –
4 | CCC(=O)N(CCNC(=O)[C@H](CC(C)C)N(CCNC(=O)[C@H](Cc1c[nH]c2ccccc12)N(CCNC(=O)[C@H](Cc1ccccc1)N(CCN)C(=O)CC)C(=O)CCO)C(=O)CC)[C@@H](C)C(N)=O | 120 µM | – | – | –
5 | CC(=O)N[C@@H](CCC(N)=O)C(=O)N[C@@H](CCC(=O)O)C(=O)N[C@H](C(=O)N[C@@H](Cc1ccccc1)C(=O)N[C@@H](CO)C(=O)N[C@@H](CC(=O)O)C(=O)N[C@@H](CC(C)C)C(=O)N[C@@H](Cc1c[nH]c2ccccc12)C(=O)N[C@@H](CCCCN)C(=O)N[C@@H](CC(C)C)C(=O)N[C@@H](CC(C)C)C(=O)N1CCC[C@H]1C(=O)O)[C@@H](C)O | 8.7 µM | – | – | –
